Experimental data from PMC11026318, “Radiolabeled 15-mer peptide internalization is mediated by megalin (LRP2 receptor) in a CRISPR/Cas9-based LRP2 knockout human kidney cell model” (EJNMMI Radiopharmacy and Chemistry, 2024).

How the values were obtained:
[1] = test system: HK2 cells (parent, partial KO, LRP2 KO); experiment: Viability assay with gentamicin at cytotoxic concentration (CellTiter 96 AQueous One); format: cell-based, human; conditions: gentamicin 6 mg/mL, 48 h
Protocol: The cells were seeded in a 96-well plate (10^4 cells per well) 24 h prior to the experiment. The cells treated with gentamicin at cytotoxic concentration (6 mg/mL) were incubated in parallel with the controls in standard culture medium (representing 100% cell viability). The cells cultivated with 10% DMSO in culture medium represent 0% cell viability, which was measured after 48 h using the CellTiter 96® AQueous One Solution Cell Proliferation Assay (Promega) according to the manufacturer’s protocol. Absorbance was detected using a spectrophotometric plate reader (TECAN Infinite M200).

[2] = molecular target: T1, megalin (LRP2 receptor) in HK2 cells (Homo sapiens, UniProt P98164); experiment: FITC-albumin accumulation studies in parent HK2 vs LRP2 knockout cells; format: cell-based; conditions: 24 µg/mL, 2 h; fluorescence of cell lysates related to total protein
T1 construct: a human kidney cell line with high endogenous megalin expression; host or cells: HK2 human kidney epithelial cells (parent), compared with CRISPR/Cas9 LRP2 KO derivatives
Protocol: The CRISPR/cas9 gene editing technique was implemented to generate LRP2 KO HK2 cells (Fig. 1) employing designed sgRNA sequences (Table 1). HK2 cells were seeded on 24-well plate (10^5 cells/well). Cells were transfected by sgRNA (720 ng per reaction) and TrueCut™ Cas9 Protein v2 (3 840 ng per reaction; Invitrogen) using Lipofectamine™ CRISPRMAX™ Cas9 Transfection Reagent (Invitrogen) according to the manufacturer’s instructions 24 h after seeding. The knockout reactions were repeated twice for each sgRNA. Each transfection was performed after 48 h of recovery. The final group of cells transfected sequentially six times was designated as LRP2 KO. A group of cells transfected only once with NPMY sgRNA but twice with TMD and PPPSPS sgRNAs, was designated as partial KO (Figs. 2A–E, 5A and B).
The accumulation studies of fluorescein isothiocyanate-labelled albumin (FITC-albumin, Merck) were performed in 24-well plates (10^5 cells per well). The cells were incubated with 24 µg/mL FITC-albumin, and Passive Lysis Buffer (Promega) was added to lyse the cells after 2 h treatment. The accumulated FITC-albumin was quantified by measuring the fluorescence intensity of cell lysates (Tecan Spark® multimode microplate reader). Fluorescence intensity was plotted against total protein concentration determined by the commercially available Pierce™ BCA Protein Assay Kit (ThermoFisher Scientific).

[3] = test system: vascular endothelial growth factor (VEGF) receptor; conditions: in both in vitro and in vivo studies; ref Basile et al. [2011]; cited from earlier work

T1 sequence (P98164 26-4655): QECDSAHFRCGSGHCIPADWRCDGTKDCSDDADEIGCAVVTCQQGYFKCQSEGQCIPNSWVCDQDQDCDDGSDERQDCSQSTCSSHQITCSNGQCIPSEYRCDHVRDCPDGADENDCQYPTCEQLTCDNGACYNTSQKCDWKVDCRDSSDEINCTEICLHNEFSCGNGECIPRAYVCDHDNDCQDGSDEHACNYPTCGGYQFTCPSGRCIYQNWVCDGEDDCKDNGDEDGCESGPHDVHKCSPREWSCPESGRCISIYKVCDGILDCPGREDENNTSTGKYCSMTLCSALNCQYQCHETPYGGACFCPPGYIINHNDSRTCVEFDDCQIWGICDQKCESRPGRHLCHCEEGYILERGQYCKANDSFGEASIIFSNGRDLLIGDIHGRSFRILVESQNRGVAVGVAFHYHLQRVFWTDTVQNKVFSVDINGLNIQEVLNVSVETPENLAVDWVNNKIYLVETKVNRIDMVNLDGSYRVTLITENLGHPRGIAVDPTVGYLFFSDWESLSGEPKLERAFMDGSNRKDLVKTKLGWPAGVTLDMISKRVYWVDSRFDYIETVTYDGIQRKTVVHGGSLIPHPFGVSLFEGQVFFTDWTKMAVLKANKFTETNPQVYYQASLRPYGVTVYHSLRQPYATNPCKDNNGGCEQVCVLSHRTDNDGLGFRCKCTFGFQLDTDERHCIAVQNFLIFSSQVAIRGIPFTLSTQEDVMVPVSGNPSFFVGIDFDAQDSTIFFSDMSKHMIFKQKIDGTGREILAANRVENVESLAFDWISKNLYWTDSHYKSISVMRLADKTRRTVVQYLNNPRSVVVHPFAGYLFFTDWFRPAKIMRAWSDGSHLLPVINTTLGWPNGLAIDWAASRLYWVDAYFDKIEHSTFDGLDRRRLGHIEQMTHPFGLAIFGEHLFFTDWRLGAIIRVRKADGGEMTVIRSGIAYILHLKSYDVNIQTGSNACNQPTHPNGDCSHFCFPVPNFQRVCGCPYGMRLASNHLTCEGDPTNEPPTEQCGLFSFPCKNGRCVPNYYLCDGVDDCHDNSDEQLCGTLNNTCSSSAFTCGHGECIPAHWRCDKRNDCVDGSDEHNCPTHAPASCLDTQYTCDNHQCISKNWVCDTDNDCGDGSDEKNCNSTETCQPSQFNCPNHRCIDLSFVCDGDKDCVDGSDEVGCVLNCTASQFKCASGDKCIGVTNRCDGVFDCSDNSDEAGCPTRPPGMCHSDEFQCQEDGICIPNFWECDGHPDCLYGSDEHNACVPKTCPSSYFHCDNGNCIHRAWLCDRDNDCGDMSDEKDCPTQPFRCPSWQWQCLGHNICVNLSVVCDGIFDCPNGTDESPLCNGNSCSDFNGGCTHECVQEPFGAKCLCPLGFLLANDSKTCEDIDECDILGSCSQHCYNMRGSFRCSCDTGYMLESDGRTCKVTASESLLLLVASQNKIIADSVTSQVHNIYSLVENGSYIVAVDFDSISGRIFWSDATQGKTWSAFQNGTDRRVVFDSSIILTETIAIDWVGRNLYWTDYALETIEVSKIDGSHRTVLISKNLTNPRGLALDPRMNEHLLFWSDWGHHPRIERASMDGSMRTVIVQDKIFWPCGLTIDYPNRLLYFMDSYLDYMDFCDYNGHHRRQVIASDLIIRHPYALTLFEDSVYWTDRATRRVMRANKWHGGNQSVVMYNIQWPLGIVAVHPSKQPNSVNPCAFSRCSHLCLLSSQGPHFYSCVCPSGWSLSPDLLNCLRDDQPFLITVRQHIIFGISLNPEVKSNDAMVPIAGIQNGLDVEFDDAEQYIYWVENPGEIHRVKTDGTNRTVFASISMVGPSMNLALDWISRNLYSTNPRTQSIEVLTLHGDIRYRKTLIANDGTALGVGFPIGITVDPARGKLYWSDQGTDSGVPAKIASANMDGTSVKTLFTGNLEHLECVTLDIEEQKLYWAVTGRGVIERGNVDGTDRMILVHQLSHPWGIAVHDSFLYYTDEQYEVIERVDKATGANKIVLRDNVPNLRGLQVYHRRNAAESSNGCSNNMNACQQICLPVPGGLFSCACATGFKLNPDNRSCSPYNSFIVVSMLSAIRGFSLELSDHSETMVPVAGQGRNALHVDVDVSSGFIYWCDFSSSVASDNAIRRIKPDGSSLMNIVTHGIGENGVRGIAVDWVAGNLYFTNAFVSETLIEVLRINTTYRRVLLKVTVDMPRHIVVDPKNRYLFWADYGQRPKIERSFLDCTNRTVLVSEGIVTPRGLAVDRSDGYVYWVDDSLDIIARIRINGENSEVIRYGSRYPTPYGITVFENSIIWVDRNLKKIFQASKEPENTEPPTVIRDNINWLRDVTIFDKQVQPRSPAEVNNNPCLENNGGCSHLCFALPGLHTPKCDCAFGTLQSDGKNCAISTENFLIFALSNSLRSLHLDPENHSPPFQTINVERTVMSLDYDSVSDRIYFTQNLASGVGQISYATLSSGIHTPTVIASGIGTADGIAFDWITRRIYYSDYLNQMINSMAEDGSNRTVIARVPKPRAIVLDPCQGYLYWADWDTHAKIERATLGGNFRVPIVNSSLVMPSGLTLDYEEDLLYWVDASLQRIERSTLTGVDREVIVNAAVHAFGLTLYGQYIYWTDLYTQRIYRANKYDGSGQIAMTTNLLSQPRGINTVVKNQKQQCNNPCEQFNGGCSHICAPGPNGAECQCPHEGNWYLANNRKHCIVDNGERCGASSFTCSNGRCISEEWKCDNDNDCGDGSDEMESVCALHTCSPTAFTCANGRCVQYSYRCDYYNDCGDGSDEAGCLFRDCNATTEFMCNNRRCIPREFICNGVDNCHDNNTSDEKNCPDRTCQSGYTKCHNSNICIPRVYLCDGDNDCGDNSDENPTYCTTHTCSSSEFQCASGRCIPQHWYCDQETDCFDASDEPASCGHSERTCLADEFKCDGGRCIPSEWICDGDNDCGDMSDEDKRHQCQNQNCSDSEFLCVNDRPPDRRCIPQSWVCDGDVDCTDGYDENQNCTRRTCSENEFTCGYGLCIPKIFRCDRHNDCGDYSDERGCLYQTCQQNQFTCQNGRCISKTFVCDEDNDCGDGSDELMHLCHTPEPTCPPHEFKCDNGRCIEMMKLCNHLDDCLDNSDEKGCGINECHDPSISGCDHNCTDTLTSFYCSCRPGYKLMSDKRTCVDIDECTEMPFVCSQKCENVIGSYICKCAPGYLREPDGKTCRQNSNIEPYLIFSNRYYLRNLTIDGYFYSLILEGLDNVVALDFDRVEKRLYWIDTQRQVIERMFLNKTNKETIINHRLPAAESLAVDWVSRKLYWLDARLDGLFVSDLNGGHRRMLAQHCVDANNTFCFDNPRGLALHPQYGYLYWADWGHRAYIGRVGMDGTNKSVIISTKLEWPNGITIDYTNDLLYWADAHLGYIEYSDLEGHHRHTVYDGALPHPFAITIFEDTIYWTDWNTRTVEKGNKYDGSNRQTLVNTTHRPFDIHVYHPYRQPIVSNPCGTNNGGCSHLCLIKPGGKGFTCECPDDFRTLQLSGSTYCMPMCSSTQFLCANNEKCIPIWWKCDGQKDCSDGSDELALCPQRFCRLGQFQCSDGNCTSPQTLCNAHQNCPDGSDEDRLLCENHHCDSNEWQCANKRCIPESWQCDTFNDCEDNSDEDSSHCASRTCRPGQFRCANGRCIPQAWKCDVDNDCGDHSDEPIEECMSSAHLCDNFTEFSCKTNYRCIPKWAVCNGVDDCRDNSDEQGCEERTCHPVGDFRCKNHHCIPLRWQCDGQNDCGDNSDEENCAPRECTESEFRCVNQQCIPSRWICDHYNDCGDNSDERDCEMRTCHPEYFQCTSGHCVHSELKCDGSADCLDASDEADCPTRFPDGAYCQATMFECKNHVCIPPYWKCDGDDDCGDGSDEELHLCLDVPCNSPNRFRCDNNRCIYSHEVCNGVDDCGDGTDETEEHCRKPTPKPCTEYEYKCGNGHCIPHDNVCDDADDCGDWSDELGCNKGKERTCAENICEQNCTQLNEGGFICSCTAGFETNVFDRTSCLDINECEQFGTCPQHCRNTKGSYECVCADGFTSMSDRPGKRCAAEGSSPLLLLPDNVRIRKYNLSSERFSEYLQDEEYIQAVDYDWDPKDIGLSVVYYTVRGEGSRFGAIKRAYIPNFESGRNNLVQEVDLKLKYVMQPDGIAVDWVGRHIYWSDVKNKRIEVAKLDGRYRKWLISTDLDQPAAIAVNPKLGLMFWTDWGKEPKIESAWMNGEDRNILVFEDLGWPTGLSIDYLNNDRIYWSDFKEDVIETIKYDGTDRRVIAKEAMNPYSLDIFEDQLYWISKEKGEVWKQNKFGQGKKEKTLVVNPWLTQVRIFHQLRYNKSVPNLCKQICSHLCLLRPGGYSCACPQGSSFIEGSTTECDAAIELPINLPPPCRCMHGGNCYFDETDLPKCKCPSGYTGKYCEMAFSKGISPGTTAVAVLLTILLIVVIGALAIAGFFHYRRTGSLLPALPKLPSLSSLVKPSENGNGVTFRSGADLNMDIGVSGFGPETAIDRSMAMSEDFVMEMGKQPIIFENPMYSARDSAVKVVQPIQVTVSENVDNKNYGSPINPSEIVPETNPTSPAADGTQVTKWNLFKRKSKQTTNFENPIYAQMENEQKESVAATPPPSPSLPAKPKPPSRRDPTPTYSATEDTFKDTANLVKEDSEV

CNC(C)C1CCC(N)C(OC2C(N)CC(N)C(OC3OCC(C)(O)C(NC)C3O)C2O)O1 (stereo not drawn) [gentamicin]
Viability of partial KO or LRP2 KO cells after treatment, compared to HK2 parent cells [1]: higher viability

fluorescein isothiocyanate-labelled albumin [FITC-albumin]
FITC-albumin accumulation in KO cells vs parent HK2 cells [2]: Reduced FITC-albumin accumulation

Ac-KLTWMELYQLAYKGI-NH2 [15-mer, 15 amino acid anti-VEGFR peptide, custom synthesized according to a previously published structure (Basile et al. 2011)]
Antiangiogenic effects [3]: potent antiangiogenic effects
